According to ChEMBL document CHEMBL3507680, “University of Dundee, Gates Library screen for HepG2 cell viability”:

Assay: Human HepG2 cell viability assay in 384 well format
Type: toxicity, cell-based
Parameters: dose 125 nL, time 70.5 hour; concentration not given beside the values
Conditions: HepG2 cells, read-out: Inhibition

Row | SMILES | cytotoxicity at 70.5 h
1 | CC(C)(C)c1noc(CCCC(=O)N2CCCC(c3ccn[nH]3)C2)n1 (configuration not stated) | -2.4%
2 | CCc1noc(CCCC(=O)N2CCCC(c3ccn[nH]3)C2)n1 (configuration not stated) | -5.32%
3 | CC1CCN(C(=O)CN2CCC(c3n[nH]c(C4CC4)n3)CC2)CC1 | -1.53%
4 | Cc1noc(C2CCCN(CC(=O)N3CCc4ccccc4C3)C2)n1 (configuration not stated) | -1.69%
5 | O=C(CCN1C(=O)CCC1=O)Nc1ccc(Cl)cc1 | -1.6%
6 | O=C(CCN1C(=O)CCC1=O)Nc1ccc(Oc2ccc(Cl)cc2)nc1 | -10.7%
7 | Cc1noc(C2CCN(CC(=O)N3CCNC(=O)C3)CC2)n1 | 17.7%
8 | CNC(=O)c1cccc(NC(=O)NC(C)c2cc(C)oc2C)c1C (configuration not stated) | -8.35%
9 | CCN(C(=O)CN1CCC(c2n[nH]c(C3CC3)n2)CC1)C1CC1 | -5.09%
10 | C=C(C)CN1CCC(c2n[nH]c(C3CC3)n2)CC1 | 23.2%
11 | N#Cc1cccc(S(=O)(=O)Nc2c(F)cccc2N2CCCC2)c1 | -5.48%
12 | CCOc1ccccc1CNC(=O)N(CC)C(C)c1cccnc1 (configuration not stated) | -6.76%
13 | CC(C)(C)Oc1ccccc1CNC(=O)C1CCCOC1 (configuration not stated) | -0.0152%
14 | CCOc1ccc(CNC(=O)N(C)Cc2ncnn2C)cc1C | 1.14%
15 | O=C(c1nc(=O)[nH][nH]1)N1CCCCCC1 | -1.45%
16 | Cc1noc(NS(=O)(=O)c2ccc(Cl)s2)c1C | -0.524%
17 | O=S(=O)(Nc1c(F)cccc1N1CCCC1)c1cncc(F)c1 | -5.83%
18 | O=C(c1nc(=O)[nH][nH]1)N1CCC2(CCCCC2)C1 | 20.2%
19 | CC(=O)N(CCc1ccccc1)CC(=O)Nc1ccccc1C#N | -1.29%
20 | COc1ccc(CNc2nnc(CC(C)(C)C)o2)cc1C#N | -3.97%
21 | CCC(C)Oc1cc(C(=O)Nc2nccs2)ccn1 (configuration not stated) | 0.776%
22 | CC(C)OCCN1CCc2cncnc2C1 | 4.2%
23 | CC(=O)N(CCC(=O)NC1(C#N)CCC1)Cc1ccccc1 | 21.1%
24 | OC(COCc1ccco1)CSc1nnc2ccccn12 (configuration not stated) | -6.03%

Row | SMILES | cytotoxicity at 70.5 h
25 | CCN(C(=O)NCc1ccc(C)cc1OC)C(C)c1cccnc1 (configuration not stated) | -6.56%
26 | CCN(C(=O)NCc1ccccc1OC(F)F)C(C)c1cccnc1 (configuration not stated) | 0.0177%
27 | Cc1ccc(-n2c(C)nnc2SCC(O)COCc2ccco2)cc1 (configuration not stated) | -5.42%
28 | Cn1cc(-c2cccc(CNC(=O)N3CCC[C@@H]3CO)c2)cn1 | -4.94%
29 | CCOC(C(=O)N1CCn2c(nnc2C(C)C)C1)c1ccccc1 (configuration not stated) | 19.3%
30 | COCCN(Cc1cccs1)C(=O)C1CCCN(C(N)=O)C1 (configuration not stated) | 14.1%
31 | Cc1cc(NC(C)C(=O)NCC(F)(F)F)nc(-c2ccncc2)n1 (configuration not stated) | -16.5%
32 | Cc1cc(NCC(=O)NCC(F)(F)F)nc(-c2ccncc2)n1 | -8.33%
33 | CCN(C(=O)CN1CCC(c2cc3ccccc3[nH]2)CC1)C1CC1 | 4.18%
34 | CCN(CC)c1ccc(NC(=O)NCC2(C(N)=O)CCOCC2)cn1 | 1.3%
35 | NC(=O)C(Nc1cccc(CO)c1)c1ccc(Br)cc1 (configuration not stated) | 6.7%
36 | COCc1cccc(NC(C(N)=O)c2ccc(Br)cc2)c1 (configuration not stated) | -9.42%
37 | Cc1cccc(-c2c[nH]c(C3CCCN3C(=O)c3cc(C)n[nH]3)n2)c1 (configuration not stated) | -9.63%
38 | CCS(=O)(=O)N(C)C1CCN(Cn2ccc(-c3ccc(F)cc3)n2)CC1 | -13.9%
39 | O=C(CCc1ccc(Br)cc1)NCCc1nnc[nH]1 | -11.9%
40 | CC(C)CCNC(=O)CCc1ccnc2ccccc12 | -14.4%
41 | CNC(=O)CN(C)c1cncc(OCc2ccccc2)n1 | 8.53%
42 | CCOc1cncc(N(C)CC(=O)NC)n1 | -7.85%
43 | NCc1ccc(Oc2cccc(Cl)c2Cl)nc1 | 6.23%
44 | Cn1ccc(CNC(=O)N2CCCC3(C2)OCCO3)c1 | 0.239%
45 | CCC(NC(=O)c1cccc2cc[nH]c12)C(=O)N1CCOCC1 (configuration not stated) | -11.2%
46 | CN(C)C(=O)CCS(=O)(=O)Cc1cc(Cl)c2c(c1)OCCO2 | -6.03%
47 | CCN(CC(=O)N(C)C)S(=O)(=O)c1cnc2c(c1)c(C)nn2C | -17.2%
48 | CCN(CC(=O)NC)S(=O)(=O)c1cnc2c(c1)c(C)nn2C | -14.3%

Row | SMILES | cytotoxicity at 70.5 h
49 | CCCN(CC(=O)OC)S(=O)(=O)c1cnc2c(c1)c(C)nn2C | -7.82%
50 | O=C(NCC1CCCOC1)c1ccc(-c2cccs2)[nH]c1=O (configuration not stated) | 4.28%
51 | Cn1cc(C(=O)O)c(-c2ccc(F)cc2F)n1 | -4.16%
52 | CC(=O)N1CCN(C(=O)CCc2cc(Br)cs2)CC1 | -3.42%
53 | CC(C#N)(NC(=O)Cn1cc(I)cn1)C1CC1 (configuration not stated) | 6.23%
54 | CC(=O)NCc1ccc(-n2ccnc2C)nc1 | -14.4%
55 | CCN(Cc1csc(C)n1)c1cccc(CO)c1 | -3.7%
56 | CCc1cc(C(=O)N2CCc3c(ncn3CCc3ccccc3)C2)[nH]n1 | 5.19%
57 | CCc1c(C)nc2ccccc2c1N1CCC(O)CC1 | -3.88%
58 | CN1CCN(C(=O)CCc2cc(Br)cs2)CC1 | -6.76%
59 | CN(Cc1ccc(F)cc1F)CC(C)(CO)CO | -5.77%
60 | Cc1cnc(NC2CCN(CC(=O)Nc3ccccc3)CC2)nc1C | 2.9%
61 | CN(C)c1nccc(N(C)C2CCCCC2)n1 | -4.22%
62 | Cc1noc(CNc2ccccc2N2CCCCC2)n1 | -2.98%
63 | Cc1cc(NC(=O)C(C)N2CCN(c3ccccc3F)CC2)no1 (configuration not stated) | 4.65%
64 | CCc1ccc(Cn2nccc2NC(=O)C2CCS(=O)(=O)C2)cc1 (configuration not stated) | -3.51%
65 | CCCC(=O)NS(=O)(=O)c1ccc(C#N)c(C(F)(F)F)c1 | 1.39%
66 | CC(C)(C)C(=O)NS(=O)(=O)c1ccc(C#N)c(C(F)(F)F)c1 | 7.04%
67 | CC(C(=O)NC(N)=O)N1CCN(c2ccc(C#N)cc2F)CC1 (configuration not stated) | -19.1%
68 | Cc1nc2ccccc2n1CCNCc1cccc(O)c1 | -4.75%
69 | COCCCNC(=O)CN(C)C(=O)CN(C)c1ccc(C#N)cn1 | -7.44%
70 | CC1(C)Cc2ccc(C(=O)NC3CCS(=O)(=O)C3)c(O)c2O1 (configuration not stated) | 12.1%
71 | CC/C=C(/C)C(=O)NS(=O)(=O)c1ccc(C#N)cc1C(F)(F)F | -7.29%
72 | CC/C=C(/C)C(=O)NS(=O)(=O)c1ccc(C#N)c(C(F)(F)F)c1 | -12.5%

Row | SMILES | cytotoxicity at 70.5 h
73 | COc1ccccc1C(C)(C)NC(=O)NC1CCC(O)CC1 (configuration not stated) | -15.4%
74 | O=C(Nc1cccnc1)NC(CCCO)c1ccccc1 (configuration not stated) | -16%
75 | CCNC(=O)N1CCc2ccc(NC(=O)C(C)c3ccsc3)cc21 (configuration not stated) | -11.3%
76 | O=C1CCCc2[nH]c(=O)c(C(=O)N3CCc4ccccc4C3)cc21 | 0.27%
77 | Cn1nccc1NC(=O)CN1CCc2sccc2C1 | -11.2%
78 | CN(C)Cc1ccc(CNC(=O)NCC2(C)CCCS2)cc1 (configuration not stated) | 7.26%
79 | O=C1CCC(C(=O)Nc2cnn(-c3ccccc3Br)c2)N1 (configuration not stated) | -15.6%
80 | Cc1ccc(F)c(N2CCCC(Nc3nccn4cnnc34)C2=O)c1 (configuration not stated) | -11.1%
81 | O=C1C(Nc2nccn3cnnc23)CCN1c1cccc(Cl)c1 (configuration not stated) | -11.2%
82 | CC(C)n1nccc1NC(=O)CN1CCc2sccc2C1 | -15.3%
83 | CC(C)CN1CCC(NC(C)c2ccccc2-n2cccn2)CC1 (configuration not stated) | -3.22%
84 | CN(Cc1cccc(OC(F)(F)F)c1)C(=O)c1cnsn1 | -3.78%
85 | CC(C)C(NC(=O)c1ccccc1F)C(=O)Nc1cnn(C)c1 (configuration not stated) | -13.2%
86 | CCn1cnnc1CCNC(=O)C(C)(C)c1cccc(Cl)c1 | -7.37%
87 | CC(Nc1ccc(CN2CCCC2=O)cc1)C(=O)N(C)CCC#N (configuration not stated) | 0.0537%
88 | CC(Nc1ccc(CCN2CCOCC2)cc1)C(=O)N(C)CCC#N (configuration not stated) | 9.3%
89 | Cc1c(NCCOCC(F)(F)F)cccc1C(=O)N1CCCC1 | -10.8%
90 | Cc1cc(C(=O)N2CCCC2)ccc1NCCO | -10.2%
91 | Cc1ccc(NCc2ccco2)cc1N1CCOC1=O | -16%
92 | COc1ccc(-c2nc(C3(NC(=O)OC(C)(C)C)CCC3)no2)cn1 | -3.79%
93 | CCOCc1ccc(NC(=O)NC2CCCn3nc(CC)nc32)cc1 (configuration not stated) | -7.72%
94 | CC(C)(C)OC(=O)NC1(c2noc(-c3ccco3)n2)CCC1 | -9.18%
95 | Fc1ccc(CNc2ccccc2Cn2cncn2)cc1 | -7.99%
96 | O=S(=O)(CC1CCOCC1)NCc1ccnc(O)c1 | 10.4%

Row | SMILES | cytotoxicity at 70.5 h
97 | C=C(C)Cn1ccc2cc(OC)c(F)cc2c1=O | -2.43%
98 | COc1cc2ccn(CCCO)c(=O)c2cc1F | -6.17%
99 | O=C(NC1CC(F)(F)C1)[C@]12COC[C@H]1CN(Cc1ccsc1)C2 | -2.91%
100 | Cc1nnc([C@@]23CCO[C@@H]2CCN(Cc2ccc4c(c2)OCO4)C3)o1 | -2.95%
101 | CN(C)C(=O)C1CCC2(CCN(C(=O)Nc3ccc(F)cc3)CC2)O1 (configuration not stated) | -12.4%
102 | CC1c2ncc(COc3cccnc3)n2CCN1Cc1ccco1 (configuration not stated) | -12.4%
103 | CN1CCN(S(=O)(=O)C2CC2)Cc2cccnc21 | -0.334%
104 | O=C(c1ccsc1)N1CCC2(CC1)CCN(S(=O)(=O)C1CC1)CC2 | -9.77%
105 | COCC1CN(CCc2ccc(OC)c(OC)c2)Cc2c1cnn2C (configuration not stated) | -8.2%
106 | COc1cc(N2CCC3(CC2)CCN(c2cccnc2)C3=O)ncn1 | -9.9%
107 | Cn1cccc1C(=O)NCc1cnc2n1CCN(CC1CCOCC1)C2 | -3.17%
108 | CN1CCN(S(=O)(=O)c2ccccc2)Cc2cccnc21 | -4.28%
109 | Cc1cc(C(=O)N2CCC3(CC2)C(=O)N(C)CCN3CC2CC2)c(C)o1 | -2.24%
110 | Cc1ccc(C(=O)N2CCC3(CCN3Cc3ccc(F)cc3)C2)cn1 (configuration not stated) | -8.15%
111 | CCS(=O)(=O)Nc1ccc2c(c1)C1(CCOCC1)CN2C | -1.55%
112 | CNC(=O)c1cc2c(nc1N(C)C)CCN(c1ncc(C)cn1)CC2 | -6.83%
113 | CCOC[C@]12COC[C@H]1CN(Cc1ccc(F)c(F)c1)C2 | -4.64%
114 | Cn1cc(-c2ncc3c(c2C(=O)O)CCN(CC2CC2)C3)cn1 | -1.4%
115 | Cc1cccc(CN2CCCC3(CCN(CC4CCCO4)CC3)C2)n1 (configuration not stated) | -11.4%
116 | Cc1csc(CN2CCn3c(COc4cccnc4)cnc3C2C)n1 (configuration not stated) | -9.58%
117 | CCn1ncc2c1CN(CCc1cccc(Cl)c1)CC2COC (configuration not stated) | -8.31%
